# Reference: patent US20240238423A9, “TETRAHYDROISOQUINOLINE HETEROBIFUNCTIONAL BCL-XL DEGRADERS” (Treeline Biosciences, Inc., priority 2022, published 2024)
# Where two headings read alike, the source gives them in different places.
# Molecular target: T1, Human BCL-XL protein (N-terminal HiBiT tagged BCL-XL in HT1080 cells) (Homo sapiens, UniProt Q07817)
# T1 construct: expressed in transfected cells; host or cells: HT-1080 (ATCC CCL-121), stably transduced with lentivirus pLV-UBC-N-HiBiT-BCL-XL-PGK-puro and selected with puromycin
# T1 sequence (Q07817 whole entry): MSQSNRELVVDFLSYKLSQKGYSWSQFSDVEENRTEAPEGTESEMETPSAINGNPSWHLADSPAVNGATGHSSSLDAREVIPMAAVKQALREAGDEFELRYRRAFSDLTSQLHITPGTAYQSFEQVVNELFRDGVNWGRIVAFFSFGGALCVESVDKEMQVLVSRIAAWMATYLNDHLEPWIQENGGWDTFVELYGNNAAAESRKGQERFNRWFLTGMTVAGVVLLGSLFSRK
# Assay: HiBiT based degradation assay
# Assay type: cell-based
# Conditions: HT1080 cells expressing HiBiT-BCL-XL; for Ymin (24 h) / Ymin (6 h): BCL-XL degradation normalized with DMSO control; for DC50: BCL-XL degradation
# Excerpt: Human BCL-XL protein coding open reading frame fused with N-terminal HiBiT coding sequence was synthesized from Integrated DNA Technologies (IDT). Next, N-HiBiT-BCL-XL sequence was cloned into pLV-UBC-PGK-Puro, a lentivirus plasmid purchased from Vectorbuilder, to generate pLV-UBC-N-HiBiT-BCL-XL-PGK-puro. Lentiviral particles were generated from Lenti-X™ 293T cells (Clontech) by co-transfection of pLV-UBC-N-HiBiT-BCL-XL-PGK-puro plasmids and lentiviral packaging plasmid mix (Cellecta). HT-1080 [HT1080](ATCC CCL-121) cells were infected with the lentivirus, and HT1080 cells stably integrated with the lentiviral vectors were established by incubation with 1 μg/mL puromycin (Thermofisher).
# HT1080 cells expressing N-terminal HiBiT tagged BCL-XL were dispensed into a 384-well plate pre-spotted with compounds at varying concentrations. Three thousand cells were seeded into each well in 40 μL of RPMI 1640 media. […] After incubation, luminescence was read on a PHERAstar FSX Plate Reader (BMG). BCL-XL degradation at each indicated concentration was normalized with the DMSO control. The BCL-XL degradation curves were plotted using a four-parameter logistic model. For compounds displaying hook effects, the curve fitting was performed using the bottom point of the hook curves (i.e., the point of Ymin) as the bottom plateau to calculate EC50.
SMILES,Ymin (24 h),"DC50 (24 h, read-out: EC50 (24 h))",Ymin (6 h),"DC50 (6 h, read-out: EC50 (6 h))"
"Cc1c(OCCCC[C@@H]2CCCN(CC(=O)Nc3ccc4c(C5CCC(=O)NC5=O)nn(C)c4c3)C2)cccc1-c1ccc(N2CCc3cccc(C(=O)Nc4nc5ccccc5s4)c3C2)nc1C(=O)O (stereo partly drawn) [Compound 202b, 6-[8-(1,3-benzothiazol-2-ylcarbamoyl)-3,4-dihydro-1H-isoquinolin-2-yl]-3-[3-[4-[(3R)-1-[2-[[3-(2,6-dioxo-3-piperidyl)-1-methyl-indazol-6-yl]amino]-2-oxo-ethyl]-3-piperidyl]butoxy]-2-methyl-phenyl]pyridine-2-carboxylic acid]",A (Ymin < 50%),< 100 nM,,
"Cc1cc(O[C@H]2CC[C@H](CCC(=O)N3CCN(c4cccc5c(C6CCC(=O)NC6=O)nn(C)c45)CC3)CC2)ccc1-c1ccc(N2CCc3cccc(C(=O)Nc4nc5ccccc5s4)c3C2)nc1C(=O)O (some centres unmarked) [Compound 252a, 6-(8-(benzo[d]thiazol-2-ylcarbamoyl)-3,4-dihydroisoquinolin-2(1H)-yl)-3-(4-(((1r,4r)-4-(3-(4-(3-(2,6-dioxopiperidin-3-yl)-1-methyl-1H-indazol-7-yl)piperazin-1-yl)-3-oxopropyl)cyclohexyl)oxy)-2-methylphenyl)picolinic acid]",A (Ymin < 50%),< 100 nM,,
"Cc1c(CCCCC2CCN(CC(=O)Nc3ccc4c(C5CCC(=O)NC5=O)nn(C)c4c3)CC2)cccc1-c1ccc(N2CCc3cccc(C(=O)Nc4nc5ccccc5s4)c3C2)nc1C(=O)O (centres unmarked) [Compound 292, 6-[8-(1,3-benzothiazol-2-ylcarbamoyl)-3,4-dihydro-1H-isoquinolin-2-yl]-3-[3-[4-[1-[2-[[3-(2,6-dioxo-3-piperidyl)-1-methyl-indazol-6-yl]amino]-2-oxo-ethyl]-4-piperidyl]butyl]-2-methyl-phenyl]pyridine-2-carboxylic acid]",A (Ymin < 50%),< 100 nM,,
"Cc1c(O[C@H]2CC[C@H]([C@H](C)CCN3CCN(c4ccc5c(C6CCC(=O)NC6=O)nn(C)c5c4)CC3)CC2)cccc1-c1ccc(N2CCc3cccc(C(=O)Nc4nc5ccccc5s4)c3C2)nc1C(=O)O (single isomer, unassigned) [Compound 310a]",A (Ymin < 50%),< 100 nM,,
"Cn1nc(C2CCC(=O)NC2=O)c2ccc(N3CCN(CCCC[C@H]4CC[C@H](Oc5cccc(-c6ccc(N7CCc8cccc(C(=O)Nc9nc%10ccccc%10s9)c8C7)nc6C(=O)O)c5)CC4)CC3)cc21 (some centres unmarked) [Compound 329a, 6-(8-(benzo[d]thiazol-2-ylcarbamoyl)-3,4-dihydroisoquinolin-2(1H)-yl)-3-(3-(((1s,4r)-4-(4-(4-(3-(2,6-dioxopiperidin-3-yl)-1-methyl-1H-indazol-6-yl)piperazin-1-yl)butyl)cyclohexyl)oxy)phenyl)picolinic acid]",A (Ymin < 50%),< 100 nM,,
"Cc1c(OCCC[C@@H]2CCN(CC(=O)Nc3cccc4c(C5CCC(=O)NC5=O)nn(C)c34)CC2(F)F)cccc1-c1ccc(N2CCc3cccc(C(=O)Nc4nc5ccccc5s4)c3C2)nc1C(=O)O (stereo partly drawn) [Compound 197b, 6-(8-(benzo[d]thiazol-2-ylcarbamoyl)-3,4-dihydroisoquinolin-2(1H)-yl)-3-(3-(3-((4R)-1-(2-((3-(2,6-dioxopiperidin-3-yl)-1-methyl-1H-indazol-7-yl)amino)-2-oxoethyl)-3,3-difluoropiperidin-4-yl)propoxy)-2-methylphenyl)picolinic acid]",B (50% ≤ Ymin < 70%),100 to 1000 nM,,
"Cc1c(OCC[C@H](C)C2CCN(CC(=O)Nc3ccc4c(C5CCC(=O)NC5=O)nn(C)c4c3)CC2)cccc1-c1ccc(N2CCc3cccc(C(=O)Nc4nc5ccccc5s4)c3C2)nc1C(=O)O (stereo partly drawn) [Compound 167b, 6-[8-(1,3-benzothiazol-2-ylcarbamoyl)-3,4-dihydro-1H-isoquinolin-2-yl]-3-[3-[(3S)-3-[1-[2-[[3-(2,6-dioxo-3-piperidyl)-1-methyl-indazol-6-yl]amino]-2-oxo-ethyl]-4-piperidyl]butoxy]-2-methyl-phenyl]pyridine-2-carboxylic acid]",B (50% ≤ Ymin < 70%),< 100 nM,,
"Cc1c(O[C@H]2CC[C@H](CCCN3CCN(c4ccc5c(C6CCC(=O)NC6=O)nn(C)c5c4)CC3)CC2)cccc1-c1ccc(N2CCc3cccc(C(=O)Nc4nc5ccccc5s4)c3C2)nc1C(=O)O (some centres unmarked) [Compound 148a, 6-(8-(benzo[d]thiazol-2-ylcarbamoyl)-3,4-dihydroisoquinolin-2(1H)-yl)-3-(3-(((1s,4r)-4-(3-(4-(3-(2,6-dioxopiperidin-3-yl)-1-methyl-1H-indazol-6-yl)piperazin-1-yl)propyl)cyclohexyl)oxy)-2-methylphenyl)picolinic acid]",A (Ymin < 50%),< 100 nM,B (50% ≤ Ymin < 70%),< 100 nM
"Cc1cc2c(C3CCC(=O)NC3=O)nn(C)c2cc1N1CCN(CCCC[C@H]2CC[C@H](Oc3cccc(-c4ccc(N5CCc6cccc(C(=O)Nc7nc8ccccc8s7)c6C5)nc4C(=O)O)c3C)CC2)CC1 (some centres unmarked) [Compound 325a, 6-(8-(benzo[d]thiazol-2-ylcarbamoyl)-3,4-dihydroisoquinolin-2(1H)-yl)-3-(3-(((1s,4r)-4-(4-(4-(3-(2,6-dioxopiperidin-3-yl)-1,5-dimethyl-1H-indazol-6-yl)piperazin-1-yl)butyl)cyclohexyl)oxy)-2-methylphenyl)picolinic acid]",A (Ymin < 50%),< 100 nM,,
"Cc1c(O[C@H]2CC[C@H](CCC(C)(C)N3CCN(c4cccc5c(C6CCC(=O)NC6=O)nn(C)c45)CC3)CC2)cccc1-c1ccc(N2CCc3cccc(C(=O)Nc4nc5ccccc5s4)c3C2)nc1C(=O)O (some centres unmarked) [Compound 341a, 6-(8-(benzo[d]thiazol-2-ylcarbamoyl)-3,4-dihydroisoquinolin-2(1H)-yl)-3-(3-(((is, 4r)-4-(3-(4-(3-(2,6-dioxopiperidin-3-yl)-1-methyl-1H-indazol-7-yl)piperazin-1-yl)-3-methylbutyl)cyclohexyl)oxy)-2-methylphenyl)picolinic acid]",A (Ymin < 50%),< 100 nM,,
"Cc1c(O[C@H]2CC[C@H](CCCCN3CCN(c4ccc5c(C6CCC(=O)NC6=O)nn(C)c5c4)[C@H](C)C3)CC2)cccc1-c1ccc(N2CCc3cccc(C(=O)Nc4nc5ccccc5s4)c3C2)nc1C(=O)O (stereo partly drawn) [Compound 300a, 6-(8-(benzo[d]thiazol-2-ylcarbamoyl)-3,4-dihydroisoquinolin-2(1H)-yl)-3-(3-(((1s,4r)-4-(4-((3R)-4-(3-(2,6-dioxopiperidin-3-yl)-1-methyl-1H-indazol-6-yl)-3-methylpiperazin-1-yl)butyl)cyclohexyl)oxy)-2-methylphenyl)picolinic acid]",A (Ymin < 50%),< 100 nM,,
"Cc1c(-c2ccc(N3CCc4cccc(C(=O)Nc5nc6ccccc6s5)c4C3)nc2C(=O)NCC(=O)Nc2ccc3c(C4CCC(=O)NC4=O)nn(C)c3c2)cnn1CC12CC3CC(CC(C3)C1)C2 [Compound 115, 2-(5-(1-((1R,3S)-adamantan-1-ylmethyl)-5-methyl-1H-pyrazol-4-yl)-6-((2-((3-(2,6-dioxopiperidin-3-yl)-1-methyl-1H-indazol-6-yl)amino)-2-oxoethyl)carbamoyl)pyridin-2-yl)-N-(benzo[d]thiazol-2-yl)-1,2,3,4-tetrahydroisoquinoline-8-carboxamide]",,,B (50% ≤ Ymin < 70%),< 100 nM
"Cc1c(OCCC(F)(F)C2CCN(CC(=O)Nc3cccc4c(C5CCC(=O)NC5=O)nn(C)c34)CC2)cccc1-c1ccc(N2CCc3cccc(C(=O)Nc4nc5ccccc5s4)c3C2)nc1C(=O)O (centres unmarked) [Compound 196, 6-(8-(benzo[d]thiazol-2-ylcarbamoyl)-3,4-dihydroisoquinolin-2(1H)-yl)-3-(3-(3-(1-(2-((3-(2,6-dioxopiperidin-3-yl)-1-methyl-1H-indazol-7-yl)amino)-2-oxoethyl)piperidin-4-yl)-3,3-difluoropropoxy)-2-methylphenyl)picolinic acid]",B (50% ≤ Ymin < 70%),100 to 1000 nM,,
"Cc1cc(OCCCN2C[C@@H](C)N(CC(=O)N3CCN(c4ccc5c(C6CCC(=O)NC6=O)nn(C)c5c4)CC3)[C@@H](C)C2)ccc1-c1ccc(N2CCc3cccc(C(=O)Nc4nc5ccccc5s4)c3C2)nc1C(=O)O (stereo partly drawn) [Compound 154a, 6-(8-(Benzo[d]thiazol-2-ylcarbamoyl)-3,4-dihydroisoquinolin-2(1H)-yl)-3-(4-(3-((3R,5S)-4-(2-(4-(3-(2,6-dioxopiperidin-3-yl)-1-methyl-1H-indazol-6-yl)piperazin-1-yl)-2-oxoethyl)-3,5-dimethylpiperazin-1-yl)propoxy)-2-methylphenyl)picolinic acid]",A (Ymin < 50%),< 100 nM,A (Ymin < 50%),< 100 nM
